Test results as given in BigSolDB 2.1.

`CCC[C@H](N)C(=O)O` showed a solubility (mole fraction) (in acetone, 298.15 K) of 0.000515, a solubility (mole fraction) (in acetone, 303.15 K) of 0.000664 and a solubility (mole fraction) (in acetone, 308.15 K) of 0.000828. For the same compound, the solubility (mole fraction) (in acetone, 313.15 K) was 0.00106, the solubility (mole fraction) (in acetone, 318.15 K) was 0.00135 and the solubility (mole fraction) (in acetone, 323.15 K) was 0.00161. For the same compound, the solubility (mole fraction) (in acetonitrile, 298.15 K) was 5.93e-05, the solubility (mole fraction) (in acetonitrile, 303.15 K) was 6.88e-05 and the solubility (mole fraction) (in acetonitrile, 308.15 K) was 7.54e-05. It also gave a solubility (mole fraction) (in acetonitrile, 313.15 K) of 8.02e-05, a solubility (mole fraction) (in acetonitrile, 318.15 K) of 8.53e-05 and a solubility (mole fraction) (in acetonitrile, 323.15 K) of 9.69e-05. The solubility (mole fraction) (in ethanol, 298.15 K) was 0.000171, the solubility (mole fraction) (in ethanol, 303.15 K) was 0.000186 and the solubility (mole fraction) (in ethanol, 308.15 K) was 0.000201. For the same compound, the solubility (mole fraction) (in ethanol, 313.15 K) was 0.000227, the solubility (mole fraction) (in ethanol, 318.15 K) was 0.000244 and the solubility (mole fraction) (in ethanol, 323.15 K) was 0.000283. It also gave a solubility (mole fraction) (in ethyl acetate, 298.15 K) of 0.000253, a solubility (mole fraction) (in ethyl acetate, 303.15 K) of 0.000301 and a solubility (mole fraction) (in ethyl acetate, 308.15 K) of 0.000349. It also gave a solubility (mole fraction) (in ethyl acetate, 313.15 K) of 0.000449, a solubility (mole fraction) (in ethyl acetate, 318.15 K) of 0.0005 and a solubility (mole fraction) (in ethyl acetate, 323.15 K) of 0.00056. For the same compound, the solubility (mole fraction) (in isopentanol, 298.15 K) was 0.000726, the solubility (mole fraction) (in isopentanol, 303.15 K) was 0.000875 and the solubility (mole fraction) (in isopentanol, 308.15 K) was 0.00103. The solubility (mole fraction) (in isopentanol, 313.15 K) was 0.00122, the solubility (mole fraction) (in isopentanol, 318.15 K) was 0.00151 and the solubility (mole fraction) (in isopentanol, 323.15 K) was 0.00183. The solubility (mole fraction) (in isopropanol, 298.15 K) was 0.00119, the solubility (mole fraction) (in isopropanol, 303.15 K) was 0.0015 and the solubility (mole fraction) (in isopropanol, 308.15 K) was 0.00173. It also gave a solubility (mole fraction) (in isopropanol, 313.15 K) of 0.00192, a solubility (mole fraction) (in isopropanol, 318.15 K) of 0.00215 and a solubility (mole fraction) (in isopropanol, 323.15 K) of 0.00249. The solubility (mole fraction) (in methanol, 298.15 K) was 0.00104, the solubility (mole fraction) (in methanol, 303.15 K) was 0.00109 and the solubility (mole fraction) (in methanol, 308.15 K) was 0.00113. The solubility (mole fraction) (in methanol, 313.15 K) was 0.0012, the solubility (mole fraction) (in methanol, 318.15 K) was 0.00126 and the solubility (mole fraction) (in methanol, 323.15 K) was 0.00129. The solubility (mole fraction) (in methyl acetate, 298.15 K) was 7.37e-05, the solubility (mole fraction) (in methyl acetate, 303.15 K) was 9.03e-05 and the solubility (mole fraction) (in methyl acetate, 308.15 K) was 0.00012. For the same compound, the solubility (mole fraction) (in methyl acetate, 313.15 K) was 0.00015, the solubility (mole fraction) (in methyl acetate, 318.15 K) was 0.000176 and the solubility (mole fraction) (in methyl acetate, 323.15 K) was 0.000216. For the same compound, the solubility (mole fraction) (in n-butanol, 298.15 K) was 0.000962, the solubility (mole fraction) (in n-butanol, 303.15 K) was 0.00122 and the solubility (mole fraction) (in n-butanol, 308.15 K) was 0.0014. For the same compound, the solubility (mole fraction) (in n-butanol, 313.15 K) was 0.00157, the solubility (mole fraction) (in n-butanol, 318.15 K) was 0.00175 and the solubility (mole fraction) (in n-butanol, 323.15 K) was 0.0019. For the same compound, the solubility (mole fraction) (in n-pentanol, 298.15 K) was 0.000508, the solubility (mole fraction) (in n-pentanol, 303.15 K) was 0.000567 and the solubility (mole fraction) (in n-pentanol, 308.15 K) was 0.000639. For the same compound, the solubility (mole fraction) (in n-pentanol, 313.15 K) was 0.000744, the solubility (mole fraction) (in n-pentanol, 318.15 K) was 0.000818 and the solubility (mole fraction) (in n-pentanol, 323.15 K) was 0.000872. For the same compound, the solubility (mole fraction) (in n-propanol, 298.15 K) was 0.000859, the solubility (mole fraction) (in n-propanol, 303.15 K) was 0.00115 and the solubility (mole fraction) (in n-propanol, 308.15 K) was 0.0015. It also gave a solubility (mole fraction) (in n-propanol, 313.15 K) of 0.00189, a solubility (mole fraction) (in n-propanol, 318.15 K) of 0.00231 and a solubility (mole fraction) (in n-propanol, 323.15 K) of 0.00278. For the same compound, the solubility (mole fraction) (in water, 298.15 K) was 0.0135, the solubility (mole fraction) (in water, 303.15 K) was 0.0136 and the solubility (mole fraction) (in water, 308.15 K) was 0.0137. It also gave a solubility (mole fraction) (in water, 313.15 K) of 0.0138, a solubility (mole fraction) (in water, 318.15 K) of 0.0139 and a solubility (mole fraction) (in water, 323.15 K) of 0.0141.
